Measured values taken from patent publication US20220125877A1, “METHOD FOR TREATING COLORECTAL CANCER” (SUN YAT-SEN UNIVERSITY, priority 2019, published 2022).

Columns and labels:
[1] = system: metastatic colorectal cancer (mCRC) patients with T2DM; test: Retrospective study of OS and PFS of first-line chemotherapy in mCRC patients with T2DM (Kaplan-Meier, stratified Cox proportional hazard model), SYSUCC 2004-2016; type: in vivo, human
Source text: General clinical characteristics of the patients, such as, sex, age and body mass index (BMI) and the clinical characteristics affecting mCRC prognosis in the existing research reports (such as, primary tumor site, pathological grading, metastatic site, first-line chemotherapy regimen and KRAS genotype) were collected to exclude confounding factors, thus making the influences of metformin on the overall survival (OS) of the mCRC patients with T2DM and the progression free survival (PFS) of the first-line chemotherapy clear.
GraphPad Prism 7 was used to draw a Kaplan-Meier curve, and Log-rank (Mantel-Cox) statistical analysis was performed; stratified HR was additionally used to make a statistics on the influences on OS and PFS between different hypoglycemic agents use and the without anti-diabetic treatments.
A stratified Cox proportional hazard model was used for stratification on the above collected clinical characteristics to explore the individual factors influencing the efficacy of metformin.
After through the proportional hazard assumption, it is further assumed that sex, age, BMI, primary tumor site, pathological grading, metastatic site, and KRAS genotype may serve as confounding factors to make an impact on the anti-tumor effect of metformin. Therefore, hierarchical regression analysis was performed on the above clinical characteristics, thus determining the individual difference interacting with metformin.

[2] = system: LoVo cell line with knock-down KRAS protein; test: Cell cycle in KRAS knock-down cells; type: cell-based, human; settings: relative to LoVo, FIG. 8D
Method: 1) KRAS interference lentivirus (sh-KRAS) was constructed and packaged by Shanghai Genechem Co., LTD.
2) LoVo cells were subcultured to a 6-well plate (about 1×10^5/well), when cells were subjected to adherence growth, and the degree of cell fusion was not greater than 50%, fresh culture solution was replaced ahead of 2 h, and 10 μg/mL lentivirus infection enhancer polybrene was added. Multiplicity of Infection (MOI) of LoVo was about 20; lentivirus was added according to the formula: adding amount of lentivirus per well (μl)=MOI×cell population/titer (TU/ml)×1000. The culture solution was replaced after 16-18 h, and 1 μM puromycin was conventionally added for screening the cell line whose RNA stable expression was interfered by KRAS.
1) The cells were inoculated onto a 6-well plate, and subjected to adherence growth for 12 h, then starvation treatment over the night, and treated with the addition of an agent for 24 h, then the cells were digested and washed for 3 times with PBS and centrifuged to discard supernatant; −20° C. pre-cooled 70% ethanol was added dropwise, and the cells were mixed well by vortex, and immobilized over the night at −20° C.
2) The cells were horizontally centrifuged for 10 min at 2000 rpm to discard the supernatant; then the cells were washed with PBS for 2-3 times to remove the residual ethanol with centrifugation for 5 min each time. […]

[3] = system: 4E-BP1 phosphorylation in LoVo cell line with knock-down KRAS protein; test: Western blot of signaling pathways; type: cell-based, human; settings: FIG. 9E
Method: (§1) Western blot was used to detect the change of metformin on the related molecules of sroliferative signaling pathways MEK/ERK/cyclin D1/RB and PI3K/AKT/mTOR/4E-BP1, which clarifies the mechanism of metformin in inhibiting the proliferation of KRAS mutation CRC cells.
(§2) 1) Cells were inoculated on a culture dish and cultured to 60% of fusion degree, and treated with the addition of an agent for 24 h.
(§3) 2) Protein was collected, and washed with PBS for 3 times, then added with 100 μl 1 RSDS buffer solution (100 mmol/1 Tris-Cl pH6.8, 2% SDS, 10% glycerinum), and at this time, the cell lysis solution was sticky.
(§4) 3) The cell lysis solution was collected into a 0.5 ml centrifugal tube with a scraper, and cooked for 30 min at 100° C.
(§5) 4) The total protein extractive in the cells was subjected to protein quantification according to a BCA kit process (BIO-RAD company).
(§6) 5) The sample was treated according to a ratio of 9 μl denatured protein sample: 1 μl denatured buffer solution (β-mercaptoethanol (BME), 0.4% Bromphenol Blue), and boiled for 30 min at 100° C. for further use.
(§7) 6) A prepared SDS-PAGE gel (10% separation gel and 5% stacking gel) was taken; samples were added with 40 ug/well, and subjected gel electrophoresis for 30 min at 80V, and gel electrophoresis for 90 min at 120V. […]

[4] = system: cyclinD1/RB and AKT/mTOR/4E-BP1 signaling pathways in KRAS (G13D) mutation SW48 cell line; test: Western blot of signaling pathways; type: cell-based, human; settings: FIG. 9D
Method: as §1, §2, §3, §4, §5, §6, §7

[5] = system: KRAS (G13D) mutation cells constructed via the CRISPR/Cas9 system; test: Concentration of metformin in cells by mass spectrometry; type: cell-based, human; settings: compared with the control cell, FIG. 11C
Source text: (§8) The increase of concentration of metformin in KRAS mutation cells was verified by using the KRAS (G13D) mutation cells constructed via the CRISPR/Cas9 system and the LoVo cell line with stable knock-down KRAS.
(§9) Metformin was used to detect the KRAS (G13D) mutation cells constructed via the CRISPR/Cas9 system and the LoVo cell line with stable knock-down KRAS to collect cell lysis solution at different time points, and the concentration of metformin in the cells was detected by mass spectrometry.

[6] = system: LoVo cell line with stable knock-down KRAS; test: as above; type: cell-based, human; settings: relative to LoVo, FIG. 11D
Source text: as §8, §9

[7] = metformin use vs non-metformin use, Age at diagnosis <60 years
[8] = metformin use vs non-metformin use, Age at diagnosis ≥60 years
[9] = metformin use vs non-metformin use, BMI Normal (18.5~23.0)
[10] = metformin use vs non-metformin use, BMI Pre- & obese (>23.0)
[11] = metformin use vs non-metformin use, KRAS genotype Wildtype
[12] = metformin use vs non-metformin use, Metastatic site Liver
[13] = metformin use vs non-metformin use, Metastatic site Multiple sites
[14] = metformin use vs non-metformin use, Moderately differentiated
[15] = metformin use vs non-metformin use, Poorly & un-differentiated
[16] = metformin use vs non-metformin use, Primary site Left colon
[17] = metformin use vs non-metformin use, Primary site Rectum
[18] = metformin use vs non-metformin use, Primary site Right colon
[19] = metformin use vs non-metformin use, Sex: Female
[20] = metformin use vs non-metformin use, Sex: Male
[21] = vs nonusers of hypoglycemic agents, stratified by age at diagnosis, adjusted for sex, BMI, primary site, metastatic site, pathological grading, KRAS genotype

CN(C)C(=N)N=C(N)N [metformin]
overall survival, Kaplan-Meier curve ([1]; KRAS mutation mCRC patients, P<0.001, FIGS. 3A-B): significantly extends
progression free survival of first-line chemotherapy, Kaplan-Meier curve ([1]; KRAS mutation mCRC patients, P<0.01, FIGS. 3A-B): significantly extends
efficacy on OS and PFS, Kaplan-Meier curve ([1]; KRAS wildtype mCRC patients, FIGS. 3C-D): has no efficacy
extension of median survival ([1]; Kaplan-Meier, mCRC patients with T2DM, P=0.022, FIG. 2): 11.3 months
OS HR (95% CI) [1, 7]: 0.869
PFS HR (95% CI) [1, 7]: 1.074
OS HR (95% CI) [1, 8]: 0.596
PFS HR (95% CI) [1, 8]: 0.562
OS HR (95% CI) [1, 9]: 0.582
PFS HR (95% CI) [1, 9]: 0.884
OS HR (95% CI) [1, 10]: 0.702
PFS HR (95% CI) [1, 10]: 0.555
OS HR (95% CI) [1, 11]: 1.487
PFS HR (95% CI) [1, 11]: 1.194
OS HR (95% CI) [1, 12]: 1.151
PFS HR (95% CI) [1, 12]: 0.949
OS HR (95% CI) [1, 13]: 1.008
PFS HR (95% CI) [1, 13]: 0.818
OS HR (95% CI) [1, 14]: 0.676
PFS HR (95% CI) [1, 14]: 0.644
OS HR (95% CI) [1, 15]: 0.629
PFS HR (95% CI) [1, 15]: 0.811
OS HR (95% CI) [1, 16]: 0.982
PFS HR (95% CI) [1, 16]: 0.823
OS HR (95% CI) [1, 17]: 0.475
PFS HR (95% CI) [1, 17]: 0.544
OS HR (95% CI) [1, 18]: 0.729
PFS HR (95% CI) [1, 18]: 0.622
OS HR (95% CI) [1, 19]: 0.944
PFS HR (95% CI) [1, 19]: 0.697
OS HR (95% CI) [1, 20]: 0.673
PFS HR (95% CI) [1, 20]: 0.732
OS HR (95% CI) [1, 21]: 0.356
PFS HR (95% CI) [1, 21]: 0.630
inhibiting effect on transformation from G1 phase to phase S after interference of KRAS (G13D) expression [2]: down-regulate the inhibiting effect
inhibiting effect on LoVo protein and 4E-BP1 phosphorylation after interference of KRAS (G13D) expression [3]: down-regulate the inhibiting effect
change of the cyclinD1/RB and AKT/mTOR/4E-BP1 signaling pathways [4]: consistent with the KRAS mutation CRC cells LoVo
concentration of metformin in cells [5]: obviously increased concentration
concentration of metformin in cells [6]: decreases obviously
